This assay relates to T1, HvACT-2HS1.
T1 construct: full-length, 467 residues; pET28a (NdeI) N-terminal His-tag removed with thrombin; E. coli Rosetta 2 (DE3); 57 kDa SDS-PAGE, 51 kDa native, monomer
The assay can be described thus: HPLC of product ([…] nm), Michaelis-Menten non-linear fit. The class given is biochemical, Hordeum vulgare subsp. vulgare. Conditions: 100 mM Tris-HCl pH 8.5, 40°C.

The structures appear in SMILES notation.

The term Km denotes the concentration of substrate that gives half-maximal velocity. As for `N=C(N)NCCCCN` [Agmatine], the Km (100 µM p-coumaroyl-CoA) amounted to 30 ± 1.3 µM.

For `COc1cc(/C=C/C(=O)SCCNC(=O)CCNC(=O)[C@H](O)C(C)(C)COP(=O)(O)OP(=O)(O)OC[C@H]2O[C@@H](n3cnc4c(N)ncnc43)[C@H](O)[C@@H]2OP(=O)(O)O)ccc1O` [Feruloyl-CoA], the Km (100 µM agmatine) amounted to 6.6 ± 2.2 µM.

Turning to `NCCCCN` [Putrescine], the Km (100 µM p-coumaroyl-CoA) is 30000 µM.

In the case of `CC(C)(COP(=O)(O)OP(=O)(O)OC[C@H]1O[C@@H](n2cnc3c(N)ncnc32)[C@H](O)[C@@H]1OP(=O)(O)O)[C@@H](O)C(=O)NCCC(=O)NCCSC(=O)/C=C/c1ccc(O)cc1` [p-Coumaroyl-CoA], the Km (100 µM agmatine) came out at 12 ± 1.3 µM.

For the origin of these results see paper PMC13170813, “Agmatine coumaroyltransferase gene on the short arm of chromosome 2H is involved in hordatine biosynthesis in barley” (Plant Biotechnology, 2026).
